Data published in patent publication US20260285850A1, “SUBSTITUTED OXAZOLIDINONES AND IMIDAZOLINONES AS HERBICIDES” (FMC CORPORATION, priority 2023, published 2026).

Experiments:
Assay type in all cases: in vivo
[1] = system: blackgrass (Alopecurus myosuroides); experiment: Test A preemergence soil spray, visual injury rating 0-100; conditions: 10 days
In short: (§1)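 Plants in a loam and sand soil blend were treated with each test chemical, in a non-phytotoxic solvent system including surfactant, either sprayed on seeded soil before emergence or applied after emergence at the one- to two-leaf stage. Ten days later in the greenhouse, plants were compared with untreated controls and visually rated from 0 (no effect) to 100 (complete control).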

[2] = system: kochia (Bassia scoparia); experiment: as above; conditions: 10 days
In short: as §1

[3] = system: barnyardgrass (Echinochloa crus-galli); experiment: as above; conditions: 10 days
In short: as §1

[4] = system: corn (Zea mays); experiment: as above; conditions: 10 days
In short: as §1

[5] = system: wheat (Triticum aestivum); experiment: as above; conditions: 10 days
In short: as §1

[6] = system: oat, wild (wild oat, Avena fatua); experiment: as above; conditions: 10 days
In short: as §1

[7] = system: ragweed (common ragweed, Ambrosia artemisiifolia); experiment: as above; conditions: 10 days
In short: as §1

[8] = system: soybean (Glycine max); experiment: as above; conditions: 10 days
In short: as §1

[9] = system: palmer (palmer amaranth, palmer pigweed, Amaranthus palmeri); experiment: as above; conditions: 10 days
In short: as §1

[10] = system: ryegrass, Italian (italian ryegrass, Lolium multiflorum); experiment: as above; conditions: 10 days
In short: as §1

[11] = system: green foxtail (Setaria viridis); experiment: as above; conditions: 10 days
In short: as §1

[12] = system: sedge, umbrella (small-flower umbrella sedge, Cyperus difformis); experiment: Test B flooded paddy test, visual plant response rating 0-100; conditions: 250 g ai/ha, Flood, applied to paddy water, evaluated after 13 days
In short: (§2)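 Visual evaluation after 13 days. Water-applied treatment, 3 cm flood depth held constant, plants at 2-leaf stage at treatment.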

[13] = system: ducksalad (Heteranthera limosa); experiment: as above; conditions: 250 g ai/ha, Flood, applied to paddy water, evaluated after 13 days
In short: as §2

[14] = system: barnyardgrass (Echinochloa crusgalli); experiment: as above; conditions: 250 g ai/ha, Flood, applied to paddy water, evaluated after 13 days
In short: as §2

[15] = system: rice (Oryza sativa); experiment: as above; conditions: 250 g ai/ha, Flood, applied to paddy water, evaluated after 13 days
In short: as §2

[16] = system: blackgrass (Alopecurus myosuroides); experiment: Test A postemergence application, visual injury rating 0-100
In short: as §1

[17] = system: kochia (Bassia scoparia); experiment: as above
In short: as §1

[18] = system: barnyardgrass (Echinochloa crus-galli); experiment: as above
In short: as §1

[19] = system: corn (Zea mays); experiment: as above
In short: as §1

[20] = system: wheat (Triticum aestivum); experiment: as above
In short: as §1

[21] = system: oat, wild (wild oat, Avena fatua); experiment: as above
In short: as §1

[22] = system: galium (catchweed bedstraw, Galium aparine); experiment: as above
In short: as §1

[23] = system: ragweed (common ragweed, Ambrosia artemisiifolia); experiment: as above
In short: as §1

[24] = system: soybean (Glycine max); experiment: as above
In short: as §1

[25] = system: palmer (palmer amaranth, palmer pigweed, Amaranthus palmeri); experiment: as above
In short: as §1

[26] = system: ryegrass, Italian (italian ryegrass, Lolium multiflorum); experiment: as above
In short: as §1

[27] = system: horseweed (Erigeron canadensis); experiment: as above
In short: as §1

[28] = system: green foxtail (Setaria viridis); experiment: as above
In short: as §1

[29] = 62 g ai/ha, 0 = no effect, 100 = complete control
[30] = 62 g ai/ha, postemergence, 10 days, 0 = no effect, 100 = complete control
[31] = Postemergence, 16 g ai/ha, greenhouse 10 days, 0 no effect, 100 complete control

## C=CC1(C(=O)NC2CC(C(=O)OC)C2)CN(c2cc(F)cc(F)c2)C(=O)O1 (stereo not shown) [Compound 174]
[1]; 16 g ai/ha, 0 to 100 scale
  Blackgrass plant response rating: 0
[1]; [29]
  Blackgrass plant response rating (0-100): 0
[2]; 16 g ai/ha, 0 to 100 scale
  Kochia plant response rating: 0
[2]; [29]
  Kochia plant response rating (0-100): 0
[3]; 16 g ai/ha, 0 to 100 scale
  Barnyardgrass plant response rating: 0
[3]; [29]
  Barnyardgrass plant response rating (0-100): 0
[4]; 16 g ai/ha, 0 to 100 scale
  Corn plant response rating: 0
[4]; [29]
  Corn plant response rating (0-100): 0
[5]; 16 g ai/ha, 0 to 100 scale
  Wheat plant response rating: 0
[5]; [29]
  Wheat plant response rating (0-100): 0
[6]; 16 g ai/ha, 0 to 100 scale
  Oat, Wild plant response rating: 0
[6]; [29]
  Oat, Wild plant response rating (0-100): 0
[7]; 16 g ai/ha, 0 to 100 scale
  Ragweed plant response rating: 0
[7]; [29]
  Ragweed plant response rating (0-100): 0
[8]; 16 g ai/ha, 0 to 100 scale
  Soybean plant response rating: 0
[8]; [29]
  Soybean plant response rating (0-100): 0
[9]; 16 g ai/ha, 0 to 100 scale
  Pigweed, Palmer plant response rating: 0
[9]; [29]
  Pigweed, Palmer plant response rating (0-100): 0
[10]; 16 g ai/ha, 0 to 100 scale
  Ryegrass, Italian plant response rating: 0
[10]; [29]
  Ryegrass, Italian plant response rating (0-100): 0
[11]; 16 g ai/ha, 0 to 100 scale
  Foxtail, Green plant response rating: 0
[11]; [29]
  Foxtail, Green plant response rating (0-100): 0
[12]
  Plant response rating, Sedge, Umbrella (0 to 100 scale, 0 is no effect and 100 is complete control): 0
[13]
  Plant response rating, Ducksalad (0 to 100 scale, 0 is no effect and 100 is complete control): 0
[14]
  Plant response rating, Barnyardgrass (0 to 100 scale, 0 is no effect and 100 is complete control): 0
[15]
  Plant response rating, Rice (0 to 100 scale, 0 is no effect and 100 is complete control): 0
[16]; [30]
  Blackgrass plant response rating (0-100): 0
[16]; [31]
  Blackgrass plant response rating (0 to 100 scale): 0
[17]; [30]
  Kochia plant response rating (0-100): 0
[17]; [31]
  Kochia plant response rating (0 to 100 scale): 0
[18]; [30]
  Barnyardgrass plant response rating (0-100): 20
[18]; [31]
  Barnyardgrass plant response rating (0 to 100 scale): 10
[19]; [30]
  Corn plant response rating (0-100): 0
[19]; [31]
  Corn plant response rating (0 to 100 scale): 0
[20]; [30]
  Wheat plant response rating (0-100): 0
[20]; [31]
  Wheat plant response rating (0 to 100 scale): 0
[21]; [30]
  Oat, Wild plant response rating (0-100): 0
[21]; [31]
  Oat, Wild plant response rating (0 to 100 scale): 0
[22]; [30]
  Galium plant response rating (0-100): 0
[22]; [31]
  Galium plant response rating (0 to 100 scale): 0
[23]; [30]
  Ragweed plant response rating (0-100): 0
[23]; [31]
  Ragweed plant response rating (0 to 100 scale): 0
[24]; [30]
  Soybean plant response rating (0-100): 0
[24]; [31]
  Soybean plant response rating (0 to 100 scale): 0
[25]; [30]
  Pigweed, Palmer plant response rating (0-100): 0
[25]; [31]
  Pigweed, Palmer plant response rating (0 to 100 scale): 0
[26]; [30]
  Ryegrass, Italian plant response rating (0-100): 0
[26]; [31]
  Ryegrass, Italian plant response rating (0 to 100 scale): 0
[27]; [30]
  Horseweed plant response rating (0-100): 0
[27]; [31]
  Horseweed plant response rating (0 to 100 scale): 0
[28]; [30]
  Foxtail, Green plant response rating (0-100): 0
[28]; [31]
  Foxtail, Green plant response rating (0 to 100 scale): 0
